Source: PMC7073080, “Characterization of Convergent Suppression by UCL-2077 (3-(Triphenylmethylaminomethyl)pyridine), Known to Inhibit Slow Afterhyperpolarization, of erg-Mediated Potassium Currents and Intermediate-Conductance Calcium-Activated Potassium Channels” (International Journal of Molecular Sciences, 2020)

Molecular target: T1, erg-mediated K+ channel (Kerg, KV11.1) (Rattus norvegicus, UniProt O08962)
T1 construct: gene Kcnh2; native channel in pituitary GH3 cells
T1 sequence (O08962 1-1163): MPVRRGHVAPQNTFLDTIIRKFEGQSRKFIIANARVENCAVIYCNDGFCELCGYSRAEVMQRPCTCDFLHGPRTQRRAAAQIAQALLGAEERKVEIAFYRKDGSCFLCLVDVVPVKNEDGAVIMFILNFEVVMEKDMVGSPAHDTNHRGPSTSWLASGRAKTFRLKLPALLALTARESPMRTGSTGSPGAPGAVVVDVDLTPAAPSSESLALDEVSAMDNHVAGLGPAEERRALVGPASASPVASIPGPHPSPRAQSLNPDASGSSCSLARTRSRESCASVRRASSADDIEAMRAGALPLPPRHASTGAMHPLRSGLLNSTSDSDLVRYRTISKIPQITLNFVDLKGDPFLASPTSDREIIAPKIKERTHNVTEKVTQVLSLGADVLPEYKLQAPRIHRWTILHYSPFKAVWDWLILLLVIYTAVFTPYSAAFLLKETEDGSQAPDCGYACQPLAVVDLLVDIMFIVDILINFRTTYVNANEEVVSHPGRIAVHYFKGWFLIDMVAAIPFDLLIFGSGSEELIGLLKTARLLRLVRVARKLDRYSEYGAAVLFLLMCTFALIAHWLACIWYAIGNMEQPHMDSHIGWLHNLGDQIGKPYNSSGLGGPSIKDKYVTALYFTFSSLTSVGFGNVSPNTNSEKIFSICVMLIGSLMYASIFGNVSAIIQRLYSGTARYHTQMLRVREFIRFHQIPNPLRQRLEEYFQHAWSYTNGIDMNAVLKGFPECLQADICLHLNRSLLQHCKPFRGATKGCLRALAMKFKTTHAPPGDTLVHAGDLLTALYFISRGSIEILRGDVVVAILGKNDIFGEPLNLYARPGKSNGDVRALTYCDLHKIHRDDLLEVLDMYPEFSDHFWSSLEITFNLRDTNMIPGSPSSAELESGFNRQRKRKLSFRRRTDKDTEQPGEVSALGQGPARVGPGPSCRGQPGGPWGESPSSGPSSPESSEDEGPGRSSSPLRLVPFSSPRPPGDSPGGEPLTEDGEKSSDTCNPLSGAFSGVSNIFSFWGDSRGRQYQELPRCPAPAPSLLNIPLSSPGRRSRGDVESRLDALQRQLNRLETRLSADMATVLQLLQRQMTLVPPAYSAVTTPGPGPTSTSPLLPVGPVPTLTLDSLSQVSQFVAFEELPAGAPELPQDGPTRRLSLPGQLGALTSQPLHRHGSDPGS
Test: whole-cell patch clamp, concentration-response of IK(erg); KCNH2 siRNA knockdown
Assay type: cell-based
Conditions: gh3 cells

Compound: c1ccc(C(NCc2cccnc2)(c2ccccc2)c2ccccc2)cc1 [UCL-2077, 3-(triphenylmethylaminomethyl)pyridine]
- IC50: 4.7 µM
